Laboratory results taken from patent publication US12097210B2, “Concomitant administration of glucocorticoid receptor modulators and CYP3A inhibitors” (Corcept Therapeutics, Inc., priority 2017, dated 2024).

What was measured:
[1] = Example 2: PK of ketoconazole 400 mg single dose on Day 8 of mifepristone regimen; type: in vivo, human; details: single 400 mg ketoconazole dose on Day 8
Text: (§1) Subjects were discharged on Day 11.
(§2) Subjects were discharged on Day 11. Subjects in both cohorts returned to study center on Day 13 for safety monitoring, collection of the 120-hour PK draw, and completion of the Termination Visit procedures, followed by discharge from the study. To the extent possible, any adverse events deemed study drug-related and that were ongoing at the time of discharge from the study were followed-up to resolution or until a determination was made that the unresolved event was stable.
(§3) DURATION OF TREATMENT: Up to a total of 28 days, including up to 2 weeks screening, dosing on Days 1-8, safety observation, and PK sample collection through Day 13.
(§4) Additionally, comparisons were made between the PK results of cohort 1 and 2. Pharmacokinetic parameters Cmax, T½ and total AUC were calculated for plasma concentrations of ketoconazole following the single dose on Day 8. Descriptive statistics (count, mean, median, standard deviation, minimum, maximum, and % coefficient of variation) were provided. Ketoconazole concentrations were listed and summarized. GM means of Cmax and total AUC were compared for the single dose in this study to the combined data of reported 400 mg single doses of ketoconazole of healthy subjects from the literature.

[2] = Example 3: effect of co-administration with mifepristone on ketoconazole PK; type: in vivo, human
Description: (§5) A single dose of ketoconazole was administered on Day −1.
(§6) The study was a two period study design.

CYP3A = details: 38 published studies, 411 subjects; concomitantly administered CYP3A inhibitor; cited from earlier work
[3] = Example 3: effect of ketoconazole 200 mg twice daily on PK of mifepristone 600 mg once daily and metabolites, with food; type: in vivo, human; details: for concentrations on Day 17 compared with Day 12: 600 mg mifepristone daily with 200 mg ketoconazole twice daily vs mifepristone alone; for Ratio % Test/Reference, AUC0-24 / Ratio % Test/Reference, Cmax: Test: Day 17, 600 mg mifepristone OD + 200 mg Ketoconazole BID, Reference: Day 12, 600 mg mifepristone OD, geometric mean ratio
Description: as §5, §6
Concentrations of RU 42633 and RU 42848 were similar on Day 17 and Day 12.

[4] = Example 3: cross-study comparison of exposure with historic study of 1200 mg mifepristone OD; type: in vivo, human; details: Test: Day 17, 600 mg mifepristone OD + 200 mg Ketoconazole BID; Reference: historic study Day 7, 1200 mg mifepristone OD alone; after 34% fat meal
clinical = details: male, human, in vivo
Description: This study was conducted in accordance with Good Clinical Practice under the guidance of an Institutional Review Board and in accordance with applicable local legal and regulatory requirements.
KORLYM® was supplied in 300 mg tablets for oral administration. Three or four tablets were administered once daily (OD) to provide either the 900 mg or 1200 mg per day dose.
Itraconazole was supplied • in 100 mg capsules for oral administration. Two capsules were administered once daily (OD) to provide the 200 mg per day dose.
All drug administrations were oral and were given after the morning meal.
The inclusion criteria required, among other criteria, that the subjects be healthy male subjects between the ages of 18 and 65, weigh more than 110 pounds, and have a body mass index (BMI) of 18 to 32 kg/m^2. The design included a Screening Period of up to 3 weeks (subjects were screened at a time between days −21 to −1 prior to the first treatment period), three 14-day treatment periods, and a Follow-Up (FU) Period of 14 days for safety observation.
Subjects meeting the inclusion criteria (n=22) were administered drug daily and blood samples were taken on the days indicated below during Periods 1-3 and on day 43 of the follow-up period.
Subjects presented at the Clinical Research Unit (CRU) after an 8-hour overnight fast, then predose PK samples were taken and other evaluations (predose electrocardiograms (ECGs), plasma cortisol and ACTH, serum chemistry tests) were performed. […] On the specific days indicated above, additional blood draws for determining 24-hour PK profiles were performed.
Pharmacokinetic (PK) parameters measured and computed included AUC (area under the concentration−time curve), AUC0-24 (AUC values from time 0 to 24 hours postdose), Cmax (maximum concentration), and Css (average steady-state concentration, calculated as AUC0-24/24).

[5] = Example 2: effect of a 400 mg single dose of ketoconazole on PK of an 8-day regimen of 300 mg or 600 mg OD mifepristone after moderate fat breakfast; type: in vivo, human; details: 300 or 600 mg OD mifepristone
Description: This was an open-label study in healthy male subjects. […] The 400 mg single dose of ketoconazole was given to all subjects on day 8.
METHODOLOGY: Twelve subjects were enrolled, six in Cohort 1 and 6 in Cohort 2.
as §1, §2
DIAGNOSIS AND MAIN […] FOR INCLUSION: Healthy male volunteers between the ages of 18 to 45 years of age with a body mass index (BMI) ranging between 19 and 32 kg/m2 and a weight of at least 60 kg (132 lbs) were enrolled. Subjects had no clinically significant abnormal findings on the physical examination, ECG, blood pressure, heart rate, medical history, or clinical laboratory results during screening. The QTc interval at screening was less than 450 msec.
as §3, §4

[6] = 400 mg ketoconazole (200 mg twice per day) with 600 mg mifepristone per day
[7] = Test: Day 17, 600 mg mifepristone OD + 200 mg Ketoconazole BID, Reference: Day −1, 200 mg Ketoconazole single dose
[8] = 600 mg mifepristone OD + 200 mg ketoconazole BID

| Compound | change in exposure on co-administration with ketoconazole [3, 8] | concentrations on Day 17 compared with Day 12 [3] | Ratio % Test/Reference, AUC0-24 [3] [%] | Ratio % Test/Reference, Cmax [3] [%] | Ratio % Test/Ref, AUC0-24 [4] [%] | Ratio % Test/Ref, Cmax [4] [%] | AUC(0-t) (clinical; 900 mg) [ng·h/mL] | Cmax (clinical; 900 mg) [ng/mL] | AUC(0-t) (clinical; 1200 mg) [ng·h/mL] | Cmax (clinical; 1200 mg) [ng/mL] | increase of plasma levels (AUC) of orally administered midazolam (CYP3A) | also measured |
| --- | --- | --- | --- | --- | --- | --- | --- | --- | --- | --- | --- | --- |
| CC(=O)N1CCN(c2ccc(OCC3COC(Cn4ccnc4)(c4ccc(Cl)cc4Cl)O3)cc2)CC1 (stereo not drawn) [Ketoconazole, 1-acetyl-4-[4-[[2-(2,4-dichlorophenyl)-2-[(1H-imidazol-1-yl)-methyl]-1,3-dioxolan-4-yl]methoxy]phenyl]piperazine] | – | – | – | – | – | – | – | – | – | – | more than 11 fold | ketoconazole half-life on either mifepristone regimen [1]: not appreciably different; increase in ketoconazole AUC with concomitant mifepristone [2, 6]: 253%; increase in ketoconazole Cmax with concomitant mifepristone [2, 6]: 365%; Ratio % Test/Reference, AUC [2, 7]: 365.36%; Ratio % Test/Reference, Cmax [2, 7]: 252.71% |
| CC#C[C@]1(O)CC[C@H]2[C@@H]3CCC4=CC(=O)CCC4=C3[C@@H](c3ccc(N)cc3)C[C@@]21C [RU 42848, (8S,11R,13S,14S,17S)-11-(4-aminophenyl)-17-hydroxy-13-methyl-17-prop-1-ynyl-1,2,6,7,8,11,12,14,15,16-decahydrocyclopenta[a]phenanthren-3-one] | little change in exposure | similar | 94.88 | 95.48 | 81.43 | 82.45 | 33900 | 1630 | 36500 | 1770 | – | trough concentrations through the start of ketoconazole administration (Day 13) ([3]; FIG. 1, 600 mg mifepristone OD): increasing day-by-day |
| CC[C@H]1OC(=O)[C@H](C)[C@@H](O[C@H]2C[C@@](C)(OC)[C@@H](O)[C@H](C)O2)[C@H](C)[C@@H](O[C@@H]2O[C@H](C)C[C@H](N(C)C)[C@H]2O)[C@](C)(OC)C[C@@H](C)C(=O)[C@H](C)[C@@H](O)[C@]1(C)O [clarithromycin] | – | – | – | – | – | – | – | – | – | – | more than 6 fold | – |
| CCC(C)n1ncn(-c2ccc(N3CCN(c4ccc(OCC5COC(Cn6cncn6)(c6ccc(Cl)cc6Cl)O5)cc4)CC3)cc2)c1=O (stereo not drawn) [itraconazole] | – | – | – | – | – | – | – | – | – | – | more than 7 fold | – |

The next lines start with results.

| change in exposure on co-administration with ketoconazole [3, 8] | concentrations on Day 17 compared with Day 12 [3] | Ratio % Test/Reference, AUC0-24 [3] [%] | Ratio % Test/Reference, Cmax [3] [%] | Ratio % Test/Ref, AUC0-24 [4] [%] | Ratio % Test/Ref, Cmax [4] [%] | AUC(0-t) (clinical; 900 mg) [ng·h/mL] | Cmax (clinical; 900 mg) [ng/mL] | AUC(0-t) (clinical; 1200 mg) [ng·h/mL] | Cmax (clinical; 1200 mg) [ng/mL] | Compound | increase of plasma levels (AUC) of orally administered midazolam (CYP3A) | also measured |
| --- | --- | --- | --- | --- | --- | --- | --- | --- | --- | --- | --- | --- |
| little change in exposure | similar | 102.33 | 105.73 | 91.34 | 96.31 | 40300 | 1970 | 45800 | 2160 | CC#C[C@]1(O)CC[C@H]2[C@@H]3CCC4=CC(=O)CCC4=C3[C@@H](c3ccc(NC)cc3)C[C@@]21C [RU 42633, (8S,11R,13S,14S,17S)-17-hydroxy-13-methyl-11-[4-(methylamino)phenyl]-17-prop-1-ynyl-1,2,6,7,8,11,12,14,15,16-decahydrocyclopenta[a]phenanthren-3-one] | – | – |
| – | higher | 166.86 | 169.13 | 118.18 | 116.55 | 15100 | 755 | 16900 | 853 | CN(C)c1ccc([C@H]2C[C@@]3(C)[C@@H](CC[C@@]3(O)C#CCO)[C@@H]3CCC4=CC(=O)CCC4=C32)cc1 [RU 42698, (8S,11R,13S,14S,17S)-11-[4-(dimethylamino)phenyl]-17-hydroxy-17-(3-hydroxyprop-1-ynyl)-13-methyl-1,2,6,7,8,11,12,14,15,16-decahydrocyclopenta[a]phenanthren-3-one] | – | mean metabolite exposure compared with mifepristone [5]: lower; mean increase in exposure on co-administration with ketoconazole [3, 8]: approximately 70%; share of the total steady-state AUC0-24 of mifepristone, RU42633, RU42698, RU42848 ([3]; in the presence of ketoconazole): 13%; share of the total steady-state AUC0-24 of mifepristone, RU42633, RU42698, RU42848 ([3]; mifepristone alone): 9% |
